Results from patent publication US20030100548A1, “Arylpiperazines and their use as metallaproteinase inhibiting agents (mmp)” (priority 2000, published 2003).

- melting point: 73 °C
SMILES: O=S(=O)(CC(CS)Cc1ccccc1)N1CCN(c2ccc(F)cc2)CC1 (stereo not shown) [Example 1, N-(4-fluorophenyl)-N′-(2-benzyl-3-mercaptopropane-1-sulphonyl)-piperazine]
